Experimental data reported in the supplement of paper PMC9663587.

Assays:
[1] = system: MCF10A (GM); assay: GRmax, 72 h; higher = less effect;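 note: breast cell lines in 384-well plates, nine doses across a 10^4 range, Dye Drop imaging of viable cells vs DMSO and time-zero plates, GR 0 means no net growth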
[2] = system: PDX1206; assay: GRmax, 72 h; higher = less effect;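 note: breast cell lines in 384-well plates, nine doses across a 10^4 range, Dye Drop imaging of viable cells vs DMSO and time-zero plates, GR 0 means no net growth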

| SMILES | GRmax, 72 h [1] | GRmax, 72 h [2] |
| --- | --- | --- |
| CO[C@@H](C)Cn1c(=O)n(C)c2cnc3ccc(-c4cncc(C(C)(C)O)c4)cc3c21 (max 10 µM) | 0.0552 GR | -0.404 GR |
| C=CCn1c(=O)c2cnc(Nc3ccc(N4CCN(C)CC4)cc3)nc2n1-c1cccc(C(C)(C)O)n1 [AZD1775] (max 10 µM) | 0.0319 GR | -0.308 GR |
| CNC(=O)c1cccc(-c2ccc3c(N4CCOC[C@@H]4C)nc(N4CCOC[C@@H]4C)nc3n2)c1 [AZD2014] (max 10 µM) | 0.211 GR | 0.14 GR |
| NC1(C(=O)N[C@@H](CCO)c2ccc(Cl)cc2)CCN(c2nc[nH]c3nccc2-3)CC1 [AZD5363] (max 10 µM) | 0.641 GR | 0.397 GR |
| C[C@@H]1COCCN1c1cc(C2([S@](C)(=N)=O)CC2)nc(-c2cc[nH]c3nccc2-3)n1 [AZD6738] (max 10 µM) | 0.226 GR | 0.141 GR |
| CN(C)C/C=C/C(=O)Nc1ccc(O[C@@H]2CCC[C@@H](Nc3ncc(Cl)c(-c4c[nH]c5ccccc45)n3)C2)cc1 [BSJ-01-175] (max 10 µM) | -0.356 GR | -0.936 GR |
| CC(=O)c1c(C)c2cnc(Nc3ccc(N4CCN(CCOCCOCCOCCNC(=O)COc5cccc6c5C(=O)N(C5CCC(=O)NC5=O)C6=O)CC4)cn3)nc2n(C2CCCC2)c1=O (stereo not given) [BSJ-03-123] (max 10 µM) | -0.17 GR | -0.138 GR |
| CC(C)Nc1cc(-c2c[nH]c(C(=O)N[C@H](CO)c3cccc(Cl)c3)c2)c(Cl)cn1 [BVD523] (max 10 µM) | 0.225 GR | 0.564 GR |
| CCC(=O)Nc1ccc(C(=O)Nc2ccc(Nc3ncc4c(n3)N(C)c3ccc(C)cc3C(=O)N4C)cc2)cc1 [FMF-03-145-1] | 0.0984 GR | 0.128 GR |
| COc1cc(N2CCN(C)CC2)ccc1Nc1ncc2c(n1)N(C)c1ccccc1C(=O)N2CC(F)(F)F [FMF-03-146-1] | 0.977 GR | 0.966 GR |
| CN1CC[C@H](c2c(O)cc(O)c3c(=O)cc(-c4ccccc4Cl)oc23)[C@H](O)C1 [Flavopiridol] (max 1 µM) | -0.307 GR | -0.566 GR |
| CN(C)C(=O)c1cc2cnc(Nc3ccc(N4CCNCC4)cn3)nc2n1C1CCCC1 [LEE011/Ribociclib] (max 10 µM) | 0.519 GR | 0.713 GR |
| O=C1NC(=NCc2cccs2)SC1=Cc1ccc2ncccc2c1 [R0-3306] (max 10 µM) | -0.0351 GR | 0.0387 GR |
| CNCc1ccc(-c2[nH]c3cc(F)cc4c3c2CCNC4=O)cc1 [Rucaparib] (max 10 µM) | 0.882 GR | 0.586 GR |
| CC1(N)CCN(c2cnc(-c3cccc(Cl)c3Cl)c(N)n2)CC1 [SHP099] (max 10 µM) | 0.738 GR | 0.7 GR |
| CN(C)C/C=C/C(=O)Nc1ccc(C(=O)Nc2cccc(Nc3ncc(Cl)c(-c4c[nH]c5ccccc45)n3)c2)cc1 [THZ1] (max 1 µM) | -0.267 GR | -0.522 GR |
| CN(C)C/C=C/C(=O)Nc1ccc(C(=O)N2CCC[C@@H](Nc3ncc(Cl)c(-c4c[nH]c5ccccc45)n3)C2)cc1 [THZ531] (max 1 µM) | -0.28 GR | -0.312 GR |
| CN(C)C/C=C/C(=O)Nc1ccc(C(=O)Nc2cccc(Nc3cc(-c4c[nH]c5ccccc45)ncn3)c2)cc1 [THZ-P1-2] (max 10 µM) | -0.164 GR | 0.857 GR |
| C=CC(=O)Nc1ccc(C(=O)Nc2[nH]nc3c2CN(C(=O)N[C@H](CN(C)C)c2ccccc2)C3(C)C)cc1 [YKL-5-124] (max 10 µM) | -0.141 GR | -0.513 GR |
| CN1CCN(C(=O)c2ccc3cc(CCNc4ncnc5ccc(C#N)cc45)ccc3c2)CC1 [senexin b] (max 10 µM) | 0.893 GR | 0.223 GR |
